Assay results from patent publication US20110142829A1, “ANTI-TUMOUR COMPOSITIONS AND METHODS” (priority 2008, published 2011).
Like-named read-outs stand apart in the source and are kept apart here.

Tests used:
[1] = system: A549 lung cancer cells; conditions: for Tumour Growth Inhibition (TGI): A549 tumours in nude mice, cisplatin 5 mg/kg; for Tumour Growth Inhibition (TGI) / mean tumour volume on day 21: oltipraz 100 mg/kg; for mean tumour volume on day 1: day 1 (initiation of treatment); for mean tumour volume on day 21: cisplatin 5 mg/kg day 2, vehicle control 536 mm^3
[2] = formulated with CMC
[3] = oltipraz 100 mg/kg po days 1, 3, 8, 10, given with Cetuximab

## N.N.[Cl][Pt][Cl] [cisplatin, cis-diamminedichloridoplatinum(II)]
[1]
  Tumour Growth Inhibition (TGI): 48.8%
  mean tumour volume on day 1: 93 mm^3
  mean tumour volume on day 21: 275 mm^3

## Cc1c(-c2cnccn2)ssc1=S [oltipraz, 4-methyl-5(2-pyrazinyl)-3H-1,2-dithiole-3-thione]
Female nude mice with A549 tumours, cisplatin 5 mg/kg sc day 2, oltipraz 100 mg/kg po (alone days 1, 3, 8, 10; combination days 1 and 3), day 21
  average weight gain, % of starting weight by day 21: 4.9%
Oltipraz alone 100 mg/kg po days 1, 3, 8, 10
  toxicity based on observations of survival and weight change: no evidence of toxicity
[1]
  Tumour Growth Inhibition (TGI): 62.3%
  mean tumour volume on day 1: 93 mm^3
  mean tumour volume on day 21: 200 mm^3
[2]
  amount that can be administered without significant toxicity resulting: up to 2000 mg/kg
[3]
  toxicity based on observations of survival and weight change: no evidence of toxicity
